In ChEMBL document CHEMBL3991601, “The target landscape of clinical kinase drugs” (Science, 2017):
Active and inactive are the calls of the source. Cut-off read from the data, not from the text of the source, for most assays here: actives have a measured Kd and inactives only a lower limit.

Experiments:
[1] = target: Aurora kinase B (Homo sapiens, UniProt Q96GD4)
[2] = target: Cyclin-dependent kinase 6 (Homo sapiens, UniProt Q00534)
[3] = target: Tyrosine-protein kinase CSK (Homo sapiens, UniProt P41240)
[4] = target: Tyrosine-protein kinase Fer (Homo sapiens, UniProt P16591)
[5] = target: Tyrosine-protein kinase Fyn (Homo sapiens, UniProt P06241)
[6] = target: Guanine nucleotide-binding protein G(i) subunit alpha-2 (Homo sapiens, UniProt P04899)
[7] = target: T1, MAP kinase-activated protein kinase 5 (Homo sapiens, UniProt Q8IW41)
T1 sequence (Q8IW41 whole entry): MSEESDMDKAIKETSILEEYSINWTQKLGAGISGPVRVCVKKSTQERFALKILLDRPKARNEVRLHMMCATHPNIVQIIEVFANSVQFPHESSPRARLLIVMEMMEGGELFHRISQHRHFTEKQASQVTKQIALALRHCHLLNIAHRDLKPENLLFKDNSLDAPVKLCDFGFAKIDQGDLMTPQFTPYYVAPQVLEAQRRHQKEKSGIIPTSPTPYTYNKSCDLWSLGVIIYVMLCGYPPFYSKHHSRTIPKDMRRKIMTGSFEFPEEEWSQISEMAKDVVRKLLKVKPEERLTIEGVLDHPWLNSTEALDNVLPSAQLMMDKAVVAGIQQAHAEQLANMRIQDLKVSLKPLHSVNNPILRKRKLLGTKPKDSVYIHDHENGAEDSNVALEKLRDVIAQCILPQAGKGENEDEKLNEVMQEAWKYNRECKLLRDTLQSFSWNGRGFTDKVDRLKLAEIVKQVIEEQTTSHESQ

[8] = target: Maternal embryonic leucine zipper kinase (Homo sapiens, UniProt Q14680)
[9] = target: T2, Serine/threonine-protein kinase Nek2 (Homo sapiens, UniProt P51955)
T2 sequence (P51955 whole entry): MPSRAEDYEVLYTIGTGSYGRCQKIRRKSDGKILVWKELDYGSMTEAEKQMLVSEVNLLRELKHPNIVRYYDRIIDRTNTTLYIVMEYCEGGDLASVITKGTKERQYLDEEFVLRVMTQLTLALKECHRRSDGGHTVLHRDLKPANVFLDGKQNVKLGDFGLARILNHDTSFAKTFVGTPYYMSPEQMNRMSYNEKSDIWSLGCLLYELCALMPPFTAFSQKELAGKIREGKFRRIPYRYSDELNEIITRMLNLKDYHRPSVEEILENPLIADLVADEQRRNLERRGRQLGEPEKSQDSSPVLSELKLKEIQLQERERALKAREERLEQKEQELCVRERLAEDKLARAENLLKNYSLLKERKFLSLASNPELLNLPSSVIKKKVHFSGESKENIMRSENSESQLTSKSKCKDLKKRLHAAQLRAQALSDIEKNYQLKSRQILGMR

[10] = target: T3, Phosphatidylinositol 5-phosphate 4-kinase type-2 gamma (Homo sapiens, UniProt Q8TBX8)
T3 sequence (Q8TBX8 whole entry): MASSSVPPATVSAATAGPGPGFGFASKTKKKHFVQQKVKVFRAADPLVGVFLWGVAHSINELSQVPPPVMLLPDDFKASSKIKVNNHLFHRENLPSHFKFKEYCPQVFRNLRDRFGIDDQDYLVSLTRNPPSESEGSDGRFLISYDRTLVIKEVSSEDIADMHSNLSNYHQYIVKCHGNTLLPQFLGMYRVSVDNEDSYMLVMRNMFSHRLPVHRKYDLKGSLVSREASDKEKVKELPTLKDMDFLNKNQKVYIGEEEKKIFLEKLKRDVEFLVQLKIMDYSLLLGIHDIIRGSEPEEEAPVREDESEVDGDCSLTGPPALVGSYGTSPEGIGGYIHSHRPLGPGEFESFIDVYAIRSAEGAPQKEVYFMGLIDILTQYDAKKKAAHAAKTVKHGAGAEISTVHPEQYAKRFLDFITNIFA

[11] = target: T4, ADP/ATP translocase 2 (Homo sapiens, UniProt P05141)
T4 sequence (P05141 whole entry): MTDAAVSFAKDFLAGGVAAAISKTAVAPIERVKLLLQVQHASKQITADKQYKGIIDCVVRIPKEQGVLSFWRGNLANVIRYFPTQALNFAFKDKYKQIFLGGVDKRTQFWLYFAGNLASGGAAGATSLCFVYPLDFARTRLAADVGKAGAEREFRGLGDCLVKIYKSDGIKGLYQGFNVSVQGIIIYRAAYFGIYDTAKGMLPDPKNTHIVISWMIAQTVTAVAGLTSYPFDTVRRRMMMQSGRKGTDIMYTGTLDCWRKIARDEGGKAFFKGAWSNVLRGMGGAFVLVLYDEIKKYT

[12] = target: Serine/threonine-protein kinase 16 (Homo sapiens, UniProt O75716)
[13] = target: Serine/threonine-protein kinase 26 (Homo sapiens, UniProt Q9P289)
[14] = target: Mitogen-activated protein kinase kinase kinase 20 (Homo sapiens, UniProt Q9NYL2)
Note: in the data inactive means no Kd found up to 30 µM.

Chain of Mitogen-activated protein kinase kinase kinase 20 (Q9NYL2 whole entry): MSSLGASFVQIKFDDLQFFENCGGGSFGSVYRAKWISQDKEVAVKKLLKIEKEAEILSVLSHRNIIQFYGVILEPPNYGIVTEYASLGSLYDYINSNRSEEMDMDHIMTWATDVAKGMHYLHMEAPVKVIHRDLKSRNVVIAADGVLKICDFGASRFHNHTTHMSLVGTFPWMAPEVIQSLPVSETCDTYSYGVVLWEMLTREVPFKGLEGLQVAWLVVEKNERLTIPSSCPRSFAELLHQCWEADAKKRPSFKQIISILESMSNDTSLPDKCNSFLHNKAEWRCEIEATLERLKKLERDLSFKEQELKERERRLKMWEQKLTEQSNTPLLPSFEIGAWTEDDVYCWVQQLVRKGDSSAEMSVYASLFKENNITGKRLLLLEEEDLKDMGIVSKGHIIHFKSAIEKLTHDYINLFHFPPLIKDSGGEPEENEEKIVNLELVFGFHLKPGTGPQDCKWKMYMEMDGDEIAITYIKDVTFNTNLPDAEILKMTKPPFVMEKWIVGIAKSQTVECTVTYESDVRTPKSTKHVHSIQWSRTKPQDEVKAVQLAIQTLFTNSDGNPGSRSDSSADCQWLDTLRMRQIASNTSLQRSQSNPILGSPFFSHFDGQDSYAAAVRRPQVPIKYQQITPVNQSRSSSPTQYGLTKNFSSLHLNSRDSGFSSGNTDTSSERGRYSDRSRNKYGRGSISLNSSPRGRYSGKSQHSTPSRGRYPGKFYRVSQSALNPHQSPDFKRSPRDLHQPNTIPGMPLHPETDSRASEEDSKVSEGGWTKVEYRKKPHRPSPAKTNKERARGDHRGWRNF
Chain of Serine/threonine-protein kinase 16 (O75716 whole entry): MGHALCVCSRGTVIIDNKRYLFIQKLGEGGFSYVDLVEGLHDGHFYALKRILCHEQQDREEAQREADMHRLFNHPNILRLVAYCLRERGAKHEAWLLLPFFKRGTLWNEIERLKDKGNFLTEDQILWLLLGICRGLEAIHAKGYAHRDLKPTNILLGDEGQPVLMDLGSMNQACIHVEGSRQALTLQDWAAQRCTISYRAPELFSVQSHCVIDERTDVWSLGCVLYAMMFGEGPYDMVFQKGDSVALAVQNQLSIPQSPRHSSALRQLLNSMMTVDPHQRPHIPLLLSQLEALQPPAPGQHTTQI
Chain of Aurora kinase B (Q96GD4 whole entry): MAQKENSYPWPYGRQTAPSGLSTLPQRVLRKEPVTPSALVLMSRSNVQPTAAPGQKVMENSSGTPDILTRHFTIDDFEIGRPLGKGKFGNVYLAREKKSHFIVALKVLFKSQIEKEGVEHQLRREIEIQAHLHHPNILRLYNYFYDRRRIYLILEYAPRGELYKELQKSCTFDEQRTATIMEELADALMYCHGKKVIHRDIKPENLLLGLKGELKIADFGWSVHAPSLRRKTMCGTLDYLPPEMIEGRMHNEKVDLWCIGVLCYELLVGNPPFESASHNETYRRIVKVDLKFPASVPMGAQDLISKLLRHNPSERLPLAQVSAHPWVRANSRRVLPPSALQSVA
Chain of Tyrosine-protein kinase Fyn (P06241 whole entry): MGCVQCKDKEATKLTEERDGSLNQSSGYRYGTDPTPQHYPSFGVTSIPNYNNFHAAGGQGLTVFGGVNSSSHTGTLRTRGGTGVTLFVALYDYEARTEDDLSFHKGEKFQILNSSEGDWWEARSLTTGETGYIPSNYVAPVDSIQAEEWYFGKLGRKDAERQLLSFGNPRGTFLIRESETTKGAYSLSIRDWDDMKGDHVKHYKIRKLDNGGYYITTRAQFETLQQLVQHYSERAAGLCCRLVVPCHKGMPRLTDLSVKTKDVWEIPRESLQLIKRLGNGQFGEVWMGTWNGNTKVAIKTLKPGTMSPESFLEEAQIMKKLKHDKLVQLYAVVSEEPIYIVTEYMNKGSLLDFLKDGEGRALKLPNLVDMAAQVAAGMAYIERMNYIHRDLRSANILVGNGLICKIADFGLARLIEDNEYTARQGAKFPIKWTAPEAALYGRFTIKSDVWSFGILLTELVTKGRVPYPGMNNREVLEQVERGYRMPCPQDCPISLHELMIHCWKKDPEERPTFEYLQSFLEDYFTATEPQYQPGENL
Chain of Cyclin-dependent kinase 6 (Q00534 whole entry): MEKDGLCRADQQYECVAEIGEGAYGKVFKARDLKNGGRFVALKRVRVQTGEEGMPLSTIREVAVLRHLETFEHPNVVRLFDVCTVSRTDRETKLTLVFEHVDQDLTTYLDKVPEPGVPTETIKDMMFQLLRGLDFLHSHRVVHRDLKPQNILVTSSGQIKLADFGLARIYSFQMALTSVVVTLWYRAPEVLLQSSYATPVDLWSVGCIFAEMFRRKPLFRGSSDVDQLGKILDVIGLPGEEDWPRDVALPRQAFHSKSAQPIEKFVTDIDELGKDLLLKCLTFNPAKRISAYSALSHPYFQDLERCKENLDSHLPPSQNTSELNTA
Chain of Maternal embryonic leucine zipper kinase (Q14680 whole entry): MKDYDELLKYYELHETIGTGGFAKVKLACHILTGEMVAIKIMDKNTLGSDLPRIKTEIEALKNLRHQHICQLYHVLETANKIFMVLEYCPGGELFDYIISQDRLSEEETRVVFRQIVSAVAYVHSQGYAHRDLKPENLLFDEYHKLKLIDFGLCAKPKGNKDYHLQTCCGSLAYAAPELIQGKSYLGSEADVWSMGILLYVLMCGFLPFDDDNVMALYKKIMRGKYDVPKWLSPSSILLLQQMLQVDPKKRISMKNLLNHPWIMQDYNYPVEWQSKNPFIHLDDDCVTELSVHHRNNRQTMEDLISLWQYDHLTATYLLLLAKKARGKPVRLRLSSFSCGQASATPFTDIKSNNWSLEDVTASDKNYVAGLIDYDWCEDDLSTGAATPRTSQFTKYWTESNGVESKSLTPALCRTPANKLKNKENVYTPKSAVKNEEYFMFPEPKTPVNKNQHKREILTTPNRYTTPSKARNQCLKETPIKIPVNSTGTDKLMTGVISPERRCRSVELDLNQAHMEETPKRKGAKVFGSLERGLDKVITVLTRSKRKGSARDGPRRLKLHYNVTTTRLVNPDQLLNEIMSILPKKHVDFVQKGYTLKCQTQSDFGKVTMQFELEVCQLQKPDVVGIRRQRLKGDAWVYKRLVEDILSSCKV
Chain of Guanine nucleotide-binding protein G(i) subunit alpha-2 (P04899 whole entry): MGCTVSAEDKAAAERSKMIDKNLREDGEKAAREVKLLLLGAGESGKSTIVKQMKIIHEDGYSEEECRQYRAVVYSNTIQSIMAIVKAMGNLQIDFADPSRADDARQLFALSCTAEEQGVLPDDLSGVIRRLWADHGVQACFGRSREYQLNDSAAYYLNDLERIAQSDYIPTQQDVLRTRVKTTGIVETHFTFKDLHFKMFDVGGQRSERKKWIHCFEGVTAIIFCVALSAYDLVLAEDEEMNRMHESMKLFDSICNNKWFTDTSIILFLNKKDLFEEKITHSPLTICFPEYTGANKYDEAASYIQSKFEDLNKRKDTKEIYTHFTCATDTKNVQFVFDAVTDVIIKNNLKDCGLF
Chain of Serine/threonine-protein kinase 26 (Q9P289 whole entry): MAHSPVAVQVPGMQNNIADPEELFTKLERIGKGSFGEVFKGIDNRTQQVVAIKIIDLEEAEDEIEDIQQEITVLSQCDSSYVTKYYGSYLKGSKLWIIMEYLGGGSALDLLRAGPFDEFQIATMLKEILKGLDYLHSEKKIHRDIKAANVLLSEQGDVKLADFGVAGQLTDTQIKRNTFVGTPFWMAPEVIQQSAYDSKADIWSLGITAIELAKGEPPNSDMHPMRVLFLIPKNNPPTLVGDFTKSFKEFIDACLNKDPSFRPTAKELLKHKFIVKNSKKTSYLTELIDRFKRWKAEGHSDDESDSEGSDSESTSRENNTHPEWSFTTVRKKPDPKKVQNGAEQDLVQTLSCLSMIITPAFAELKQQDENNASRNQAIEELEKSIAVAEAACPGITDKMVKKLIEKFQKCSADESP
Chain of Tyrosine-protein kinase CSK (P41240 whole entry): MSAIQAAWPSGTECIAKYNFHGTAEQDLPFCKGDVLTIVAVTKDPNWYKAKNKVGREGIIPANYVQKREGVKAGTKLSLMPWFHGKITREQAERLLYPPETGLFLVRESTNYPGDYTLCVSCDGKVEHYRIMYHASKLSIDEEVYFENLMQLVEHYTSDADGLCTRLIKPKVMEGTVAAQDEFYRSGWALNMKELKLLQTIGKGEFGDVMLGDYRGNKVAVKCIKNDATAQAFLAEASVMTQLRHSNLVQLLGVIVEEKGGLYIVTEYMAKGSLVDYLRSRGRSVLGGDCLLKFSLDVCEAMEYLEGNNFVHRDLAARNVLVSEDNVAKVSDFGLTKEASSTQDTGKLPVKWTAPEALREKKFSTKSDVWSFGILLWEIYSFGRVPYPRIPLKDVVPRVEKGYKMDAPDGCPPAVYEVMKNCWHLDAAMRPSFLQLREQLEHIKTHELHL

| Compound | Kd [1] | Kd [2] | Kd [3] | Kd [4] | Kd [5] | Kd [6] | Kd [7] | Kd [8] | Kd [9] | Kd [10] | Kd [11] | Kd [12] | Kd [13] | Kd [14] |
| --- | --- | --- | --- | --- | --- | --- | --- | --- | --- | --- | --- | --- | --- | --- |
| O=c1[nH]ccc2cc(OC3CCNCC3)ccc12 [SAR-407899 FREE BASE] | > 30 µM (inactive) | > 30 µM (inactive) | > 30 µM (inactive) | > 30 µM (inactive) | > 30 µM (inactive) | > 30 µM (inactive) | > 30 µM (inactive) | > 30 µM (inactive) | > 30 µM (inactive) | > 30 µM (inactive) | > 30 µM (inactive) | > 30 µM (inactive) | > 30 µM (inactive) | > 30 µM (inactive) |
| CO[C@H]1C[C@@H]2CC[C@@H](C)[C@@](O)(O2)C(=O)C(=O)N2CCCC[C@H]2C(=O)O[C@H]([C@H](C)C[C@@H]2CC[C@@H](OC(=O)C(C)(CO)CO)[C@H](OC)C2)CC(=O)[C@H](C)/C=C(\C)[C@@H](O)[C@@H](OC)C(=O)[C@H](C)C[C@H](C)/C=C/C=C/C=C/1C [TEMSIROLIMUS] | > 30 µM (inactive) | > 30 µM (inactive) | > 30 µM (inactive) | > 30 µM (inactive) | > 30 µM (inactive) | > 30 µM (inactive) | > 30 µM (inactive) | > 30 µM (inactive) | > 30 µM (inactive) | > 30 µM (inactive) | > 30 µM (inactive) | > 30 µM (inactive) | > 30 µM (inactive) | > 30 µM (inactive) |
| COc1cc2c(Nc3ccc(Cl)c(Cl)c3F)ncnc2cc1OC[C@@H]1C[C@@H]2CN(C)C[C@@H]2C1 [TESEVATINIB] | > 30 µM (inactive) | > 30 µM (inactive) | > 30 µM (inactive) | > 30 µM (inactive) | > 30 µM (inactive) | > 30 µM (inactive) | > 30 µM (inactive) | > 30 µM (inactive) | > 30 µM (inactive) | > 30 µM (inactive) | > 30 µM (inactive) | > 30 µM (inactive) | > 30 µM (inactive) | > 30 µM (inactive) |
| O=C1NC(=O)[C@@H](c2cn3c4c(cccc24)CCC3)[C@@H]1c1c[nH]c2ccccc12 [TIVANTINIB] | > 30 µM (inactive) | > 30 µM (inactive) | > 30 µM (inactive) | > 30 µM (inactive) | > 30 µM (inactive) | > 30 µM (inactive) | > 30 µM (inactive) | > 30 µM (inactive) | > 30 µM (inactive) | > 30 µM (inactive) | > 30 µM (inactive) | > 30 µM (inactive) | > 30 µM (inactive) | > 30 µM (inactive) |
| C[C@@H](NC(=O)c1ncnc(N)c1Cl)c1ncc(C(=O)Nc2cc(C(F)(F)F)c(Cl)cn2)s1 [TOVORAFENIB] | > 30 µM (inactive) | > 30 µM (inactive) | > 30 µM (inactive) | > 30 µM (inactive) | > 30 µM (inactive) | > 30 µM (inactive) | > 30 µM (inactive) | > 30 µM (inactive) | > 30 µM (inactive) | > 30 µM (inactive) | > 30 µM (inactive) | > 30 µM (inactive) | > 30 µM (inactive) | 0.45 µM (active) |
| CN1C/C=C/CCOc2cccc(c2)-c2ccnc(n2)Nc2cccc(c2)C1 [ZOTIRACICLIB] | > 30 µM (inactive) | 1.6 µM | > 30 µM (inactive) | 1.69 µM | > 30 µM (inactive) | > 30 µM (inactive) | > 30 µM (inactive) | > 30 µM (inactive) | > 30 µM (inactive) | > 30 µM (inactive) | > 30 µM (inactive) | > 30 µM (inactive) | > 30 µM (inactive) | > 30 µM (inactive) |
